Measurements as given in the supplement of paper PMC10883282.
± gives the standard deviation of the averaged measurements.

Tested on: SW872
Test: relative viability vs DMSO control (72 h) (fraction); higher = more viable cells
In short: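 Sarcoma cell lines were seeded in 384-well plates at densities chosen for 80–90% confluence, then 24 h later given 2.5 µl of serially diluted compound drawn from source plates spanning 10 mM to 0.0002 mM. They were held 72 h at 37 °C, 5% CO2, with 0.1% DMSO vehicle and a 5 µM positive control included. Relative viability was read with ATPLite as percent growth and averaged over up to triplicate wells. Rescaling placed full at 1 and none at 0.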

`Cc1ccc(F)c(NC(=O)Nc2ccc(-c3cccc4[nH]nc(N)c34)cc2)c1` [Linifanib] showed a relative viability (0.00017 µM) of 1.07 ± 0.042, a relative viability (0.00051 µM) of 1.06 ± 0.048 and a relative viability (0.00152 µM) of 1.07 ± 0.028. For the same compound, the relative viability (0.00457 µM) was 1.02 ± 0.027, the relative viability (0.01372 µM) was 1.012 ± 0.0025 and the relative viability (0.04115 µM) was 1.01 ± 0.015. The relative viability (0.1235 µM) was 1.01 ± 0.053, the relative viability (0.3704 µM) was 0.991 ± 0.022 and the relative viability (1.111 µM) was 1.02 ± 0.033. The relative viability (3.333 µM) was 1.05 ± 0.049 and the relative viability (10 µM) was 1.03 ± 0.076.

For `CNC(=O)c1ccc(-c2cnc3ncc(Cc4ccc5ncccc5c4)n3n2)cc1F` [Capmatinib], the relative viability (0.00017 µM) was 1.04 ± 0.041, the relative viability (0.00051 µM) was 1.03 ± 0.026 and the relative viability (0.00152 µM) was 1.04 ± 0.048. It also gave a relative viability (0.00457 µM) of 1.03 ± 0.025, a relative viability (0.01372 µM) of 1.05 ± 0.049 and a relative viability (0.04115 µM) of 1.05 ± 0.022. The relative viability (0.1235 µM) was 1.03 ± 0.043, the relative viability (0.3704 µM) was 1.06 ± 0.029 and the relative viability (1.111 µM) was 0.987 ± 0.024. The relative viability (3.333 µM) was 1.02 ± 0.012 and the relative viability (10 µM) was 1 ± 0.019.

Work on `CN1CCC(COc2cnc(-c3cccc(Cn4nc(-c5cccc(C#N)c5)ccc4=O)c3)nc2)CC1` [Tepotinib] yielded a relative viability (0.00017 µM) of 1.057 ± 0.008, a relative viability (0.00051 µM) of 1.07 ± 0.02 and a relative viability (0.00152 µM) of 1.05 ± 0.037. It also gave a relative viability (0.00457 µM) of 1.04 ± 0.022, a relative viability (0.01372 µM) of 1.03 ± 0.038 and a relative viability (0.04115 µM) of 1.01 ± 0.022. The relative viability (0.1235 µM) was 1.04 ± 0.016, the relative viability (0.3704 µM) was 1.02 ± 0.043 and the relative viability (1.111 µM) was 0.999 ± 0.019. It also gave a relative viability (3.333 µM) of 0.972 ± 0.039 and a relative viability (10 µM) of 0.918 ± 0.033.

Work on `N#CC[C@H](C1CCCC1)n1cc(-c2ncnc3[nH]ccc23)cn1` [Ruxolitinib] yielded a relative viability (0.00017 µM) of 1.02 ± 0.032, a relative viability (0.00051 µM) of 1.048 ± 0.0078 and a relative viability (0.00152 µM) of 1.052 ± 0.009. For the same compound, the relative viability (0.00457 µM) was 1.01 ± 0.014, the relative viability (0.01372 µM) was 0.9983 ± 0.0075 and the relative viability (0.04115 µM) was 0.998 ± 0.038. For the same compound, the relative viability (0.1235 µM) was 0.974 ± 0.046, the relative viability (0.3704 µM) was 0.954 ± 0.059 and the relative viability (1.111 µM) was 0.914 ± 0.075. The relative viability (3.333 µM) was 0.886 ± 0.041 and the relative viability (10 µM) was 0.729 ± 0.024.

With `CC(C)(C)c1cc(NC(=O)Nc2ccc(-c3cn4c(n3)sc3cc(OCCN5CCOCC5)ccc34)cc2)no1` [Quizartinib] the relative viability (0.00017 µM) was 1.05 ± 0.023, the relative viability (0.00051 µM) was 1.045 ± 0.0071 and the relative viability (0.00152 µM) was 1.05 ± 0.0053. For the same compound, the relative viability (0.00457 µM) was 1.041 ± 0.0092, the relative viability (0.01372 µM) was 1.051 ± 0.0052 and the relative viability (0.04115 µM) was 1.04 ± 0.012. The relative viability (0.1235 µM) was 1.04 ± 0.019, the relative viability (0.3704 µM) was 1.03 ± 0.037 and the relative viability (1.111 µM) was 1.029 ± 0.01. It also gave a relative viability (3.333 µM) of 1.032 ± 0.0056 and a relative viability (10 µM) of 1.02 ± 0.018.

`COc1c(OCCCN2CCOCC2)ccc2c1N=C(NC(=O)c1cnc(N)nc1)N1CCN=C21` [Copanlisib] showed a relative viability (0.00017 µM) of 1.07 ± 0.03, a relative viability (0.00051 µM) of 1.02 ± 0.049 and a relative viability (0.00152 µM) of 1.02 ± 0.064. It also gave a relative viability (0.00457 µM) of 0.817 ± 0.059, a relative viability (0.01372 µM) of 0.689 ± 0.037 and a relative viability (0.04115 µM) of 0.599 ± 0.08. For the same compound, the relative viability (0.1235 µM) was 0.425 ± 0.033, the relative viability (0.3704 µM) was 0.284 ± 0.0047 and the relative viability (1.111 µM) was 0.193 ± 0.013. The relative viability (3.333 µM) was 0.16 ± 0.006 and the relative viability (10 µM) was 0.149 ± 0.015.

`Cc1ccc(NC(=O)c2ccc(CN3CCN(C)CC3)cc2)cc1Nc1nc(-c2cccnc2)cs1` [Masitinib] gave a relative viability (0.00017 µM) of 1.03 ± 0.044, a relative viability (0.00051 µM) of 1.06 ± 0.028 and a relative viability (0.00152 µM) of 1.04 ± 0.029. It also gave a relative viability (0.00457 µM) of 1.03 ± 0.041, a relative viability (0.01372 µM) of 1.04 ± 0.038 and a relative viability (0.04115 µM) of 1.06 ± 0.03. The relative viability (0.1235 µM) was 1.006 ± 0.006, the relative viability (0.3704 µM) was 0.979 ± 0.021 and the relative viability (1.111 µM) was 0.798 ± 0.015. The relative viability (3.333 µM) was 0.519 ± 0.0078 and the relative viability (10 µM) was 0.127 ± 0.012.

With `Cn1cc(-c2cc3c(N4CCN(c5ncc([C@@](C)(N)c6ccc(F)cc6)cn5)CC4)ncnn3c2)cn1` [Avapritinib] the relative viability (0.00017 µM) was 0.913 ± 0.047, the relative viability (0.00051 µM) was 0.95 ± 0.022 and the relative viability (0.00152 µM) was 0.965 ± 0.041. For the same compound, the relative viability (0.00457 µM) was 0.939 ± 0.026, the relative viability (0.01372 µM) was 0.972 ± 0.036 and the relative viability (0.04115 µM) was 0.941 ± 0.035. For the same compound, the relative viability (0.1235 µM) was 0.953 ± 0.032, the relative viability (0.3704 µM) was 0.886 ± 0.038 and the relative viability (1.111 µM) was 0.846 ± 0.029. The relative viability (3.333 µM) was 0.766 ± 0.038 and the relative viability (10 µM) was 0.67 ± 0.028.

`O=C(Cc1ccc(-c2ccc(OCCN3CCOCC3)cc2)cn1)NCc1ccccc1` [KX2-391] was tested, and the relative viability (0.00017 µM) was 1.06 ± 0.031, the relative viability (0.00051 µM) was 1.05 ± 0.037 and the relative viability (0.00152 µM) was 1.08 ± 0.029. It also gave a relative viability (0.00457 µM) of 1.03 ± 0.031, a relative viability (0.01372 µM) of 1.04 ± 0.034 and a relative viability (0.04115 µM) of 0.912 ± 0.049. For the same compound, the relative viability (0.1235 µM) was 0.504 ± 0.037, the relative viability (0.3704 µM) was 0.472 ± 0.029 and the relative viability (1.111 µM) was 0.435 ± 0.014. The relative viability (3.333 µM) was 0.443 ± 0.022 and the relative viability (10 µM) was 0.461 ± 0.028.
